Source: ChEMBL document CHEMBL3217601, “Optimized glucuronidation of dual pharmacology -2 agonists/M3 antagonists for the treatment of COPD” (Medchemcomm, 2011)
The source made the active and inactive calls. No cut-off for these calls is given here.

Tests used:
[1] = Half life in guinea pig at 0.2 mg/kg, po; type: ADME, organism-based, Cavia porcellus; set-up: dose 0.2 mg/kg, route oral; settings: in vivo
[2] = biological target: T1, Beta-2 adrenergic receptor (Homo sapiens, UniProt P07550); assay: Ratio of EC50 for human beta-2 adrenoceptor measured after drug washout to EC50 for human beta-2 adrenoceptor
Target sequence in this assay (P07550 whole entry, looked up): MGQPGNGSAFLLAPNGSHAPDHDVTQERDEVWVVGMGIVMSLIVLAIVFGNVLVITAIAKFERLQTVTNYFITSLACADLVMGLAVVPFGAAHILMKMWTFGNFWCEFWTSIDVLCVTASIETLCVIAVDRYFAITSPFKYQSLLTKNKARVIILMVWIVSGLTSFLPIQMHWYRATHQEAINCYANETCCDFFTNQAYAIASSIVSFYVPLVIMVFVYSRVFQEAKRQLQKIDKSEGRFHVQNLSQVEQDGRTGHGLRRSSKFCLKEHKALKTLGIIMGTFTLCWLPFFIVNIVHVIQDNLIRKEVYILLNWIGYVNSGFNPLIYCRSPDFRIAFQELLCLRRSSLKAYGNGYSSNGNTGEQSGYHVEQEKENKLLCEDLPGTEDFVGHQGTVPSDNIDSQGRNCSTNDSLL

[3] = biological target: Muscarinic acetylcholine receptor M3 (Cavia porcellus, UniProt Q8VH26); assay: Antagonist activity at muscarinic M3 receptor in guinea pig trachea assessed as inhibition of electric field stimulated muscle contraction by measuring release of endogenous acetylcholine in presence of propranolol
Muscarinic acetylcholine receptor M3 (Cavia porcellus, UniProt Q8VH26), sequence (Q8VH26 whole entry): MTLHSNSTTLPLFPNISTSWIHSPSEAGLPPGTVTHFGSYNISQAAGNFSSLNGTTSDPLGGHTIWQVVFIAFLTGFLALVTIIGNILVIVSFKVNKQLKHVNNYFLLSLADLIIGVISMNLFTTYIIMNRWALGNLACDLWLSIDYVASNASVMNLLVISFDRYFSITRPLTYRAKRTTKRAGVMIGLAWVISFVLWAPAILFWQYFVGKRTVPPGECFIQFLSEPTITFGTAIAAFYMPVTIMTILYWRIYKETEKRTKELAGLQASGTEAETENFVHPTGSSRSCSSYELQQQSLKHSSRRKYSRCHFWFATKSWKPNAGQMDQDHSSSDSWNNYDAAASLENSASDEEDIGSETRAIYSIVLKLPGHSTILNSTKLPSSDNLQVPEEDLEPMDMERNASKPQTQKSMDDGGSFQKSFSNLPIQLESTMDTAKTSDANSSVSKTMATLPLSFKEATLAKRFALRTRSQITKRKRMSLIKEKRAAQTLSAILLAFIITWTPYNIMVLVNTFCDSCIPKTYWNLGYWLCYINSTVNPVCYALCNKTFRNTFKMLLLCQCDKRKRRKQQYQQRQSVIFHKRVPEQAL

[4] = organism: Cavia porcellus; assay: Bronchodilatory activity in guinea pig in presence of NK2 agonist BANA; type: functional, organism-based
[5] = Stability of the compound at 70 degC and 75% relative humidity assessed as impurity after 7 days; type: physicochemical; settings: 168 h
[6] = Intrinsic clearance in human liver microsomes assessed as glucuronidation in absence of NADPH and presence of microsomal activator Brij58 and UDPGA
[7] = Genotoxicity in micronucleus (unknown origin)
[8] = tested on: Canis familiaris; assay: Bronchodilatory activity in intratracheally dosed dog assessed as inhibition of methacholine-induced bronchoconstriction; type: functional, Canis lupus familiaris
[9] = organism: Cavia porcellus; assay: Modulation of beta-2 adrenoceptor/muscarinic M3 receptor in guinea pig trachea assessed as time taken for muscle tone at submaximal concentration of compound to recover by 50% of inhibition induced; type: tissue-based
[10] = Clearance in rat at 0.2 mg/kg, po; type: ADME, organism-based; set-up: dose 0.2 mg/kg, route oral; settings: in vivo
[11] = Clearance in guinea pig at 0.2 mg/kg, po; type: ADME, organism-based, Cavia porcellus; set-up: dose 0.2 mg/kg, route oral; settings: in vivo
[12] = organism: Oryctolagus cuniculus; assay: Toxicity in rabbit cough model; type: organism-based; settings: in vivo
[13] = organism: Cavia porcellus; assay: Bronchodilatory activity in guinea pig in presence of propranolol; type: functional, organism-based
[14] = tested on: Canis familiaris; assay: Bronchodilatory activity in intratracheally dosed dog assessed as duration of inhibition of methacholine-induced bronchoconstriction; type: functional, Canis lupus familiaris
[15] = biological target: T2, Muscarinic acetylcholine receptor M3 (Homo sapiens, UniProt P20309); assay: Displacement of [3H]-N-methyl scopolamine from human cloned muscarinic M3 receptor assessed as time taken to reach 50% of total [3H]-NMS
Target sequence in this assay (P20309 whole entry, looked up): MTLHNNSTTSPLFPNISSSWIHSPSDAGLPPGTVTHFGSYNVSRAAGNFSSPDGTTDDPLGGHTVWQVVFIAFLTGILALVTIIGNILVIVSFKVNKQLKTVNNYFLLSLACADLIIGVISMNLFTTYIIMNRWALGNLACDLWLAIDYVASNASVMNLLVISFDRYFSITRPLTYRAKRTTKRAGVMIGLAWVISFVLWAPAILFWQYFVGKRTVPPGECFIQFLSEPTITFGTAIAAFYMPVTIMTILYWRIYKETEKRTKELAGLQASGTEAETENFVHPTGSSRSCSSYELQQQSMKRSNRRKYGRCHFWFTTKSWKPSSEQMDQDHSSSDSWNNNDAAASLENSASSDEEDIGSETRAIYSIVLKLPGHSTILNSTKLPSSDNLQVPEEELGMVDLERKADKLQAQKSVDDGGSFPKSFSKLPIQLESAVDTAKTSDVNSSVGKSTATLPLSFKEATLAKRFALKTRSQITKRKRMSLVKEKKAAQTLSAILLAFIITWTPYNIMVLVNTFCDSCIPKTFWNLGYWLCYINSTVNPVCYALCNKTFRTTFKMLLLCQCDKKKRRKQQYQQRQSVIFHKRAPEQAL

[16] = Drug metabolism in human hepatocytes assessed as formation of phenol glucuronide and sulfate metabolite by LC/MS/MS analysis; type: ADME, cell-based, Hepatocyte
[17] = biological target: T1, Beta-2 adrenergic receptor; assay: Agonist activity at human beta-2 adrenoceptor expressed in CHO cells assessed as stimulation of intracellular cAMP production; type: functional, cell-based
Target sequence in this assay (P07550 whole entry): as the sequence (P07550 whole entry, looked up) above

[18] = tested on: Canis familiaris; assay: Bronchodilatory activity in intratracheally dosed dog assessed as inhibition of methacholine-induced bronchoconstriction in presence of propranolol; type: functional, organism-based; settings: Canis lupus familiaris
[19] = biological target: Beta-1 adrenergic receptor (Homo sapiens, UniProt P08588); assay: Agonist activity at beta-1 adrenoceptor (unknown origin)
Beta-1 adrenergic receptor, sequence (P08588 whole entry): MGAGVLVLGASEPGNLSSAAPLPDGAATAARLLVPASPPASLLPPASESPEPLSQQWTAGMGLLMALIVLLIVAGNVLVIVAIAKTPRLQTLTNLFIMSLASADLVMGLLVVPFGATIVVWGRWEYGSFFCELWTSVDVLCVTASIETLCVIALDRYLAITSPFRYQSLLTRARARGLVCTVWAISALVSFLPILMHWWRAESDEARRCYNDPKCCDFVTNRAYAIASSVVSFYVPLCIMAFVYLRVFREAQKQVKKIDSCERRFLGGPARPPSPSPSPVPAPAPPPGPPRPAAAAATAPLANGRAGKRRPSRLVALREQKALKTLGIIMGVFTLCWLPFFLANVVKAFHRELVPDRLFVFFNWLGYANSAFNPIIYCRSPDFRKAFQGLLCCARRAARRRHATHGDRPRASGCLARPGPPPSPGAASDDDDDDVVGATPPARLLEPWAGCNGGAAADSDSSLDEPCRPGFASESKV

[20] = AUC in rat at 2 mg/kg, iv; type: ADME, organism-based; set-up: dose 2 mg/kg, route intravenous; settings: plasma
[21] = Drug metabolism of the compound in human liver microsomes assessed as glucuronidation in absence of NADPH and presence of microsomal activator Brij58 and UDPGA
[22] = biological target: T2, Muscarinic acetylcholine receptor M3; assay: Displacement of [3H]-N-methyl scopolamine from human cloned muscarinic M3 receptor
Target sequence in this assay (P20309 whole entry): as the sequence (P20309 whole entry, looked up) above

[23] = AUC in rat at 0.2 mg/kg, po; type: ADME, organism-based; set-up: dose 0.2 mg/kg, route oral; settings: plasma
[24] = AUC in guinea pig at 0.2 mg/kg, po; type: ADME, organism-based, Cavia porcellus; set-up: dose 0.2 mg/kg, route oral; settings: plasma
[25] = biological target: Beta-2 adrenergic receptor (Cavia porcellus, UniProt Q8K4Z4); assay: Agonist activity at beta-2 adrenoceptor in guinea pig trachea assessed as inhibition of histamine-induced muscle contraction
Beta-2 adrenergic receptor (Cavia porcellus, UniProt Q8K4Z4), sequence (Q8K4Z4 whole entry): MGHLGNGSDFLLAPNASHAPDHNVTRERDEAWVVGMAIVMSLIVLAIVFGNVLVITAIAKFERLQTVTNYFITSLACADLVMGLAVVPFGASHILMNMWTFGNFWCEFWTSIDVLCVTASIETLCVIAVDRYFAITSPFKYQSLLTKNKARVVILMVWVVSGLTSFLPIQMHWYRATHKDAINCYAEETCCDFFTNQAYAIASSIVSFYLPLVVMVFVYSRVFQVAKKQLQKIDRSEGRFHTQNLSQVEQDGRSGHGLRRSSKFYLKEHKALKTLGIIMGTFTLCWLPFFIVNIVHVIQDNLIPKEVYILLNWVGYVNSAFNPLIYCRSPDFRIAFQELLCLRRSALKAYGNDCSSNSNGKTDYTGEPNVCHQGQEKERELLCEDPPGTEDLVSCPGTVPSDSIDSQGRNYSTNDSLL

[26] = tested on: Salmonella typhimurium; assay: Genotoxicity in Salmonella typhimurium assessed by Ames test; type: toxicity, organism-based; settings: salmonella enterica subsp. enterica serovar typhimurium
[27] = Modulation of beta-2 adrenoceptor/muscarinic M3 receptor in guinea pig trachea assessed as inhibition of electric field stimulated muscle contraction by measuring release of endogenous acetylcholine; type: tissue-based, Cavia porcellus
[28] = biological target: Muscarinic acetylcholine receptor M3 (Cavia porcellus) (UniProt Q8VH26); assay: Antagonist activity at muscarinic M3 receptor in guinea pig trachea assessed as time taken for muscle tone at submaximal concentration of compound to recover by 50% of inhibition induced in presence of propranolol
Muscarinic acetylcholine receptor M3 (Cavia porcellus), sequence (Q8VH26 1-587): as the sequence (Q8VH26 whole entry) above

[29] = Half life in rat at 0.2 mg/kg, po; type: ADME, organism-based; set-up: dose 0.2 mg/kg, route oral; settings: in vivo
[30] = Clearance in rat at 2 mg/kg, iv; type: ADME, organism-based; set-up: dose 2 mg/kg, route intravenous; settings: in vivo
[31] = tested on: Canis familiaris; assay: Bronchodilatory activity in intratracheally dosed dog assessed as inhibition of methacholine-induced bronchoconstriction in presence of NK2 agonist BANA; type: functional, organism-based; settings: Canis lupus familiaris

Question: With CS(=O)(=O)Nc1cc([C@@H](O)CNCCCCCCCCCN2CCC(OC(=O)Nc3ccccc3-c3ccc(O)c(Cl)c3)CC2)ccc1O as the compound, how does the half-life [1] read?
Answer: 48 min

Question: And the Ratio EC50 [2]?
Answer: 1.5

Question: What about the EC50 [3] of the same compound?
Answer: 12 nM

Question: And the Activity [4]?
Answer: Active

Question: And the Stability [5]?
Answer: Stable

Question: And the microsomal CLint [6]?
Answer: 23 µL/min/mg

Question: And the Activity [7]?
Answer: Non-toxic

Question: And the ID50 [8]?
Answer: 50 µg

Question: What about the TIME [9] of the same compound?
Answer: > 11 h

Question: And the CL/F [10]?
Answer: 14 mL/min/kg

Question: What about the CL/F [11] of the same compound?
Answer: 3.6 mL/min/kg

Question: What about the Activity [12] of the same compound?
Answer: Non-toxic

Question: What about the Activity [13] of the same compound?
Answer: Active

Question: And the Time [14]?
Answer: 14 h

Question: And the TIME [15]?
Answer: 1.95 h

Question: What about the Drug metabolism [16] of the same compound?
Answer: Active

Question: And the EC50 [17]?
Answer: 3.7 nM

Question: And the Activity [18]?
Answer: Active

Question: And the EC50 [19]?
Answer: > 10 µM

Question: What about the AUC [20] of the same compound?
Answer: 125 ng·h/mL

Question: And the microsomal CLint [21]?
Answer: 24 µL/min/mg

Question: And the Ki [22]?
Answer: 0.73 nM

Question: And the AUC [23]?
Answer: 256 ng·h/mL

Question: What about the AUC [24] of the same compound?
Answer: 920 ng·h/mL

Question: What about the EC50 [25] of the same compound?
Answer: 5.8 nM

Question: What about the Activity [26] of the same compound?
Answer: Non-toxic

Question: What about the EC50 [27] of the same compound?
Answer: 7.3 nM

Question: And the TIME [28]?
Answer: > 11 h

Question: And the half-life [29]?
Answer: 96 min

Question: And the clearance [30]?
Answer: 164 mL/min/kg

Question: What about the Activity [31] of the same compound?
Answer: Active
